Measured values as given in US20150175655A1 (priority 2012, published 2015).

Biological target: T1, NS3 genotype 3a protease (UniProt Q81258)
T1 construct: Purified NS3 protease domain (amino acids 1-181) of the genotype 1b and 3a virus were generated as above; fused on or other part: N-terminal hexahistidine tag and rTEV protease cleavage site (vector p28-N6H-Tev-NS3(181)3)
T1 sequence (Q81258 1033-1663): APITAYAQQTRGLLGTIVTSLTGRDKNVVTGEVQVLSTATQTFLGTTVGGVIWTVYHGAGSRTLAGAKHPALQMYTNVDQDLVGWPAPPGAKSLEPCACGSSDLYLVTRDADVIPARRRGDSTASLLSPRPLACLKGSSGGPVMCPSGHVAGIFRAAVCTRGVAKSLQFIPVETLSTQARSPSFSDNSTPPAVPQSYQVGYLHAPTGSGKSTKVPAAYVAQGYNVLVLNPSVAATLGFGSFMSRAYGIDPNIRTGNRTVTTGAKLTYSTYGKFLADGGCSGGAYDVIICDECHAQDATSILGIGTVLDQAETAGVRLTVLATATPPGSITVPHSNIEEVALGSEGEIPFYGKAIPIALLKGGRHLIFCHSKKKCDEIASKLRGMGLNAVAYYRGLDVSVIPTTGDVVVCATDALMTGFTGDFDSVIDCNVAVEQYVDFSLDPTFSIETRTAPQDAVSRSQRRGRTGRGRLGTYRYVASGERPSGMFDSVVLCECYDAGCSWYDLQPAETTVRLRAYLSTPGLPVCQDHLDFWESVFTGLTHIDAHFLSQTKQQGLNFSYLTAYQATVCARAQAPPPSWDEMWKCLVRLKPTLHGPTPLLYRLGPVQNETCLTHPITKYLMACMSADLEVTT
Assay: Ki determination, NS3 protease genotype 3a (fluorogenic depsipeptide substrate)
Format: biochemical, hepatitis C virus
Details: 200 pM enzyme, 20 μM NS4A peptide, 2 μM substrate, read-out: Ki 3A
Outline: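 Refolded His-tagged NS3 protease domain (aa 1-181, genotype 3a) at 200 pM with 20 μM NS4A peptide was pre-incubated 1 h at RT with inhibitor (100 nM–5 pM, 3-fold), then 2 μM FRET depsipeptide substrate was added in HEPES/40% glycerol/10% DMSO buffer. Steady-state rates over 90-120 min (ex 340/em 490 nm) versus inhibitor concentration gave Ki.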

In order of falling Ki:
1. COc1ccc2nc3c(nc2c1)O[C@H]1CN(C(=O)[C@H](C(C)(C)C)NC(=O)O[C@H]2CC4CC(C4)[C@@H]2CCCCC3)[C@H](C(=O)N[C@]2(C(=O)NS(=O)(=O)C3CC3)C[C@H]2C(F)F)[C@@H]1C [Example 72, (4aS,8S,11S,12S,13R,25aS)-8-tert-butyl-N-[(1R,2R)-1-[(cyclopropylsulfonyl)carbamoyl]-2-(difluoromethyl)cyclopropyl]-17-methoxy-12-methyl-6,9-dioxo-2,3,4,4a,6,7,8,9,12,13,21,22,23,24,25,25a-hexadecahydro-1H,11H-1,3:10,13-dimethanoquinoxalino[2,3-k][1,10,3,6]benzodioxadiazacyclononadecine-11-carboxamide]  4.1 nM
2. CC[C@@H]1[C@@H]2CN(C(=O)[C@H](C(C)(C)C)NC(=O)O[C@@]3(C)C[C@@H]3CCCCC(F)(F)c3nc4ccc(OC)cc4nc3O2)[C@@H]1C(=O)N[C@]1(C(=O)NS(=O)(=O)C2(C)CC2)C[C@H]1C(F)F [Example 64, (1aS,5S,8S,9S,10R,22aS)-5-tert-butyl-N-[(1R,2R)-2-(difluoromethyl)-1-{[(1-methylcyclopropyl)sulfonyl]carbamoyl}cyclopropyl]-9-ethyl-18,18-difluoro-14-methoxy-1a-methyl-3,6-dioxo-1,1a,3,4,5,6,9,10,18,19,20,21,22,22a-tetradecahydro-8H-7,10-methanocyclopropa[18,19][1,10,3,6]dioxadiazacyclononadecino[11,12-b]quinoxaline-8-carboxamide]  1.2 nM
3. CC[C@@H]1[C@@H]2CN(C(=O)[C@H](C(C)(C)C)NC(=O)O[C@]3(C)CCC[C@H]3CCCCCc3nc4ccc(OC)cc4nc3O2)[C@@H]1C(=O)N[C@]1(C(=O)NS(=O)(=O)C2(C)CC2)C[C@H]1CC [Example 56, (3aR,7S,10S,11S,12R,24aR)-7-tert-butyl-11-ethyl-N-[(1R,2R)-2-ethyl-1-{[(1-methylcyclopropyl)sulfonyl]carbamoyl}cyclopropyl]-16-methoxy-3a-methyl-5,8-dioxo-1,2,3,3a,5,6,7,8,11,12,20,21,22,23,24,24a-hexadecahydro-10H-9,12-methanocyclopenta[18,19][1,10,3,6]dioxadiazacyclononadecino[11,12-b]quinoxaline-10-carboxamide]  1 nM
4. CC[C@@H]1[C@@H]2CN(C(=O)[C@H](C(C)(C)C)NC(=O)O[C@@H]3C[C@H]3CCCCCc3nc4ccc(OC)cc4nc3O2)[C@@H]1C(=O)N[C@]1(C(=O)NS(=O)(=O)C2(C)CC2)C[C@H]1C [Example 73, (1aR,5S,8S,9S,10R,22aR)-5-tert-butyl-9-ethyl-14-methoxy-N-[(1R,2R)-2-methyl-1-{[(1-methylcyclopropyl)sulfonyl]carbamoyl}cyclopropyl]-3,6-dioxo-1,1a,3,4,5,6,9,10,18,19,20,21,22,22a-tetradecahydro-8H-7,10-methanocyclopropa[18,19][1,10,3,6]dioxadiazacyclononadecino[11,12-b]quinoxaline-8-carboxamide]  0.82 nM
5. CC[C@@H]1[C@@H]2CN(C(=O)[C@H](C(C)(C)C)NC(=O)O[C@@H]3C[C@H]3CCCCCc3nc4ccc(OC)cc4nc3O2)[C@@H]1C(=O)N[C@]1(C(=O)NS(=O)(=O)C2(C)CC2)C[C@H]1CC(F)F [Example 67, (1aR,5S,8S,9S,10R,22aR)-5-tert-butyl-N-[(1R,2S)-2-(2,2-difluoroethyl)-1-{[(1-methylcyclopropyl)sulfonyl]carbamoyl}cyclopropyl]-9-ethyl-14-methoxy-3,6-dioxo-1,1a,3,4,5,6,9,10,18,19,20,21,22,22a-tetradecahydro-8H-7,10-methanocyclopropa[18,19][1,10,3,6]dioxadiazacyclononadecino[11,12-b]quinoxaline-8-carboxamide]  0.32 nM
6. CC[C@@H]1[C@@H]2CN(C(=O)[C@H](C(C)(C)C)NC(=O)O[C@@H]3C[C@H]3CCCCCc3nc4ccc(OC)cc4nc3O2)[C@@H]1C(=O)N[C@]1(C(=O)NS(=O)(=O)C2(F)CC2)C[C@H]1C(F)F [Example 74, (1aR,5S,8S,9S,10R,22aR)-5-tert-butyl-N-[(1R,2R)-2-(difluoromethyl)-1-{[(1-fluorocyclopropyl)sulfonyl]carbamoyl}cyclopropyl]-9-ethyl-14-methoxy-3,6-dioxo-1,1a,3,4,5,6,9,10,18,19,20,21,22,22a-tetradecahydro-8H-7,10-methanocyclopropa[18,19][1,10,3,6]dioxadiazacyclononadecino[11,12-b]quinoxaline-8-carboxamide]  0.12 nM
7. CC[C@@H]1[C@@H]2CN(C(=O)[C@H](C(C)(C)C)NC(=O)O[C@@H]3C[C@H]3CCCCCc3nc4ccc(OC)cc4nc3O2)[C@@H]1C(=O)N[C@]1(C(=O)NS(=O)(=O)C2(Cl)CC2)C[C@H]1C(F)F [Example 75, (1aR,5S,8S,9S,10R,22aR)-5-tert-butyl-N-[(1R,2R)-1-{[(1-chlorocyclopropyl)sulfonyl]carbamoyl}-2-(difluoromethyl)cyclopropyl]-9-ethyl-14-methoxy-3,6-dioxo-1,1a,3,4,5,6,9,10,18,19,20,21,22,22a-tetradecahydro-8H-7,10-methanocyclopropa[18,19][1,10,3,6]dioxadiazacyclononadecino[11,12-b]quinoxaline-8-carboxamide]  0.12 nM
8. CC[C@@H]1[C@@H]2CN(C(=O)[C@H](C(C)(C)C)NC(=O)O[C@@H]3C[C@@H]4C[C@@H]4[C@H]3CCCCC(F)(F)c3nc4ccc(OC)cc4nc3O2)[C@@H]1C(=O)N[C@]1(C(=O)NS(=O)(=O)C2(C)CC2)C[C@H]1C(F)F [Example 61, (1aS,2aR,6S,9S,10S,11R,23aR,23bS)-6-tert-butyl-N-[(1R,2R)-2-(difluoromethyl)-1-{[(1-methylcyclopropyl)sulfonyl]carbamoyl}cyclopropyl]-10-ethyl-19,19-difluoro-15-methoxy-4,7-dioxo-1a,2,2a,4,5,6,7,10,11,19,20,21,22,23,23a,23b-hexadecahydro-1H,9H-8,11-methanocyclopropa[4′,5′]cyclopenta[1′,2′:18,19][1,10,3,6]dioxadiazacyclononade cino[11,12-b]quinoxaline-9-carboxamide]  0.09 nM

Same assay, conditions: read-out: Ki 3A, 200 pM enzyme, 20 μM NS4A peptide, 2 μM substrate

In order of rising Ki:
1. CCC[C@@H]1[C@@H]2CN(C(=O)[C@H](C(C)(C)C)NC(=O)O[C@@H]3C[C@H]3CCCCC(F)(F)c3nc4ccc(OC)cc4nc3O2)[C@@H]1C(=O)N[C@]1(C(=O)NS(=O)(=O)C2(C)CC2)C[C@H]1C(F)F [Example 65, (1aR,5S,8S,9S,10R,22aR)-5-tert-butyl-N-[(1R,2R)-2-(difluoromethyl)-1-{[(1-methylcyclopropyl)sulfonyl]carbamoyl}cyclopropyl]-18,18-difluoro-14-methoxy-3,6-dioxo-9-propyl-1,1a,3,4,5,6,9,10,18,19,20,21,22,22a-tetradecahydro-8H-7,10-methanocyclopropa[18,19][1,10,3,6]dioxadiazacyclononadecino[11,12-b]quinoxaline-8-carboxamide]  0.07 nM
2. COc1ccc2nc3c(nc2c1)O[C@H]1CN(C(=O)[C@H](C(C)(C)C)NC(=O)O[C@@H]2C[C@@H]4C[C@@H]4[C@H]2CCCCC3)[C@H](C(=O)N[C@]2(C(=O)NS(=O)(=O)C3(C)CC3)C[C@H]2CC(F)F)[C@@H]1C [Example 58, (1aS,2aR,6S,9S,10S,11R,23aR,23bS)-6-tert-butyl-N-[(1R,2S)-2-(2,2-difluoroethyl)-1-{[(1-methylcyclopropyl)sulfonyl]carbamoyl}cyclopropyl]-15-methoxy-10-methyl-4,7-dioxo-1a,2,2a,4,5,6,7,10,11,19,20,21,22,23,23a,23b-hexadecahydro-1H,9H-8,11-methanocyclopropa[4′,5′]cyclopenta[1′,2′:18,19][1,10,3,6]dioxadiazacyclononade cino[11,12-b]quinoxaline-9-carboxamide]  0.17 nM
3. COc1ccc2nc3c(nc2c1)O[C@H]1CN(C(=O)[C@H](C(C)(C)C)NC(=O)O[C@@H]2C[C@@H]4C[C@@H]4[C@H]2CCCCC3)[C@H](C(=O)N[C@]2(C(=O)NS(=O)(=O)C3CC3)C[C@H]2CC(F)F)[C@@H]1C [Example 57, (1aS,2aR,6S,9S,10S,11R,23aR,23bS)-6-tert-butyl-N-[(1R,2S)-1-[(cyclopropylsulfonyl)carbamoyl]-2-(2,2-difluoroethyl)cyclopropyl]-15-methoxy-10-methyl-4,7-dioxo-1a,2,2a,4,5,6,7,10,11,19,20,21,22,23,23a,23b-hexadecahydro-1H,9H-8,11-methanocyclopropa[4′,5′]cyclopenta[1′,2′:18,19][1,10,3,6]dioxadiazacyclononade cino[11,12-b]quinoxaline-9-carboxamide]  0.28 nM
